Laboratory results from patent US9616037B2, “Aryl-phenyl-sulfonamido-cycloalkyl compounds and their use” (PIMCO 2664 Limited, priority 2008, dated 2017).
Values after ≈ are worked out from the molar mass of the structure shown.

Legend:
[1] = test system: J774 macrophages; test: Alamar Blue macrophage J774 viability assay; type: cell-based; settings: Mus musculus; J774 cells, 72 hours with compound, Alamar Blue readout; read-out: IC50
Description: (§1) Initial screening of candidate compounds was performed using in vitro assays to determine potency, metabolic stability and solubility in biologically relevant fluids. Potency was assessed using a viability assay based on the survival of the J774 macrophage cell line. Macrophages are closely related to osteoclasts and have been used previously as a model system for osteoclast survival (see, e.g., Luckman et al., 1998). Like osteoclasts, J774 macrophages are dependent on continued NFκB activation for survival, thereby providing a valuable screen for compounds with anti-inflammatory activity. Metabolic stability was measured by determining the rate of disappearance of compound in the presence of human liver microsomal preparations, as quantified by LC-MS/MS. Solubility was measured by equilibration of the compound in fasted state simulated intestinal fluid (FaSSIF) and quantified by HPLC.
In vitro potency as anti-inflammatory agents was determined for a number of APSAC compounds by incubation with J774 macrophages and subsequent determination of cell viability.
J774 cells were plated at 10^4 cells per well in 100 μL αMEM (α Modified Eagle Medium) in 96-well plates and grown overnight. The next day, test compounds were added to the cultures, and cultures were continued for another 72 hours. At the end of the culture period, cell survival was determined using an Alamar Blue assay as previously described (see, e.g., Nociari et al., 1998).
Alamar Blue is an oxidation-reduction sensitive indicator. The dye itself is in the oxidised state, which is blue and non-fluorescent. The dye can accept electrons from reducing species, such as NADPH and FADH, to form a reduced dye species, which is red and fluorescent. Thus the transformation from oxidised form to reduced form can be measured by fluorimetric or colourimetric means. For fluorescence measurements, 530-560 nm excitation and 590 nm emission wavelengths are typically used. For colourimetric measurements, absorbance at 570 nm (reduced form) and 600 nm (oxidised form) is typically measured. A simple calculation is performed to determine the relative quantities of the two species.
A high ratio of the reducing species, NADPH and FADH, to the corresponding oxidised species, NADP and FAD, is an indicator that cells are proliferating and viable. A low ratio indicates cells that are quiescent or non-viable.
Briefly, Alamar Blue (Biosource International) was added undiluted to the each well (1:10 v/v, 10 μL). The plate was incubated at 37° C. for 3-4 hours and the fluorescence was measured at 590 nm, with a 25 nm bandwidth. A high reading indicated cells with normal viability, and a low reading indicated cells that have been damaged and are no longer proliferating normally. The controls gave a high fluorescence reading, indicating a high number of live, healthy cells. A potent test compound gave a low fluorescence reading. The average results for each test compound (n=5) were expressed as a percent (%) of the average control value.
Addition of Compounds. All of the compounds studied were made up as 100 mM solutions in DMSO. These stock solutions were then diluted 1000-10000× in culture medium (αMEM). From these 100 μM or 10 μM solutions, convenient quantities (3-33 μL) were added directly to the wells so as to give the desired final compound concentration.

[2] = Thermodynamic aqueous solubility in fasted state simulated intestinal fluid (FaSSIF); type: physicochemical; settings: pH 6.5, thermodynamic from solid, equilibrated at 25° C. for 24 hours, HPLC
Description: as §1, with “Macrophages are closely related to osteoclasts and have been used previously as a model system for osteoclast survival (see, e.g., Luckman et al., 1998).” left out
Thermodynamic aqueous solubility was measured by equilibration of a number of APSAC compounds, in the solid state, with fasted state simulated intestinal fluid (FaSSIF) and quantified by HPLC. Measurement of solubility in FaSSIF provides a valuable model for the prediction of drug dissolution following oral administration.
The pH was adjusted to 6.5 using 1 M NaOH solution.
0.6 mL of a solution containing 100 mg/mL lecithin in methylene chloride was added. The methylene chloride was eliminated under vacuum at about 40° C. The vacuum was drawn for 15 minutes at 250 mbar, followed by 15 minutes at 100 mbar. […] After cooling to room temperature, the solution was then adjusted to 100 mL with blank FaSSIF.
The suspension was equilibrated at 25° C. for 24 hours, and then the pH was measured. The suspension was then filtered through a glass fibre C filter into a 96-well plate. The filtrate was then diluted by a factor of 100. Quantification was made by HPLC with reference to a standard solution of compound at approximately 0.1 mg/mL in DMSO. Different volumes of the standard, diluted and undiluted sample solutions were injected. […] Analysis was performed on an Agilent HP1100 series system equipped with a diode array detector and using ChemStation software vB.02.01-SR1.

[3] = Human liver microsomal stability assay; type: in vitro ADME; settings: pooled human liver microsomes 0.5 mg/mL, 3 μM compound, NADPH, 45 minute incubation; for half-life at 3 µM: both sexes, pH 7.4
Description: as §1, with “Macrophages are closely related to osteoclasts and have been used previously as a model system for osteoclast survival (see, e.g., Luckman et al., 1998).” left out
Metabolic stability of APSAC derivatives was measured by determination of the rate of compound disappearance when incubated in the presence of human liver microsomes. Liver microsomes are prepared from the endoplasmic reticulum of hepatocytes and are the primary source of the most important enzymes (cytochrome P450) involved in drug metabolism. Study of drug stability in the presence of liver microsomes is accepted as a valuable model permitting rapid prediction of in vivo drug stability.
Human liver microsomes were obtained from a commercial source. Test compounds (3 μM) were incubated with pooled liver microsomes (male and female). Samples were incubated for a 45 minute period and removed at 5 time points and test compounds were analysed by LC-MS/MS.
The final incubation volume was 25 μL. A control incubation was included for each compound tested, where 0.1 M phosphate buffer pH 7.4 was added instead of NADPH. The control compounds testosterone and 7-hydroxycoumarin were included in each experiment and all incubations were performed singularly for each compound.
Each compound was incubated for 0, 5, 15, 30, and 45 minutes. The control (minus NADPH) was incubated for 45 minutes only. […] The incubation plates were centrifuged at 2500 rpm for 20 minutes at 4° C. to precipitate the protein.
Following protein precipitation, the sample supernatants were combined in cassettes of up to 4 compounds and analysed using standard LC-MS/MS conditions.
From a plot of the natural logarithm of the peak area ratio (i.e., the ratio of compound peak area:internal standard peak area) against time, the gradient of the line was determined. Subsequently, half-life and intrinsic clearance were calculated using the equations below: Eliminated rate constant (k)=(−gradient). […] Pharmacokinetics Studies

[4] = test system: caspase 3; test: Caspase induction study (Nucview488 fluorogenic substrate) in the presence of TNFα; type: cell-based; settings: human monocytes, 10 μM test compound, 10 ng/mL TNFα, Nucview488 stain
Description: The ability to activate caspase 3 was studied using a fluorogenic enzyme substrate assay.
Briefly, human primary monocytes were isolated from whole blood using Ficoll gradients. The resulting cells were plated into microwell plates for 24 hours after which non-adherent cells were removed by washing. Cells were differentiated in the presence of 100 ng/mL MCSF. Cells were pre-treated with 10 μM test compound for 1 hour prior to stimulation with 10 ng/mL TNFα. Caspase 3 activation as an indicator of apoptosis was detected using the Nucview488 stain, which was added one hour prior to visualisation. The Nucview488 stain indicates the activation of caspase 3 (CPP32, apopain, YAMA), a cysteine peptidase which plays a key role in the induction of apoptosis in individual whole mammalian cells. Essentially, Nucview488 consists of a fluorogenic DNA dye and a DEVD substrate moiety specific for caspase 3. In itself, Nucview488 is nonfluorescent. However, upon entering the cell cytoplasm, Nucview488 is cleaved by caspase 3 to form a high-affinity DNA dye. The released DNA dye migrates to the cell nucleus to stain the nucleus bright green. This fluorescent staining produced in response to caspase 3 activity is monitored using fluorescent light microscopy.

For `NC1CCC(NS(=O)(=O)c2ccc(-c3ccc(F)cc3F)cc2)CC1` (stereo not shown) [ABD787], the IC50 [1] was 3550 nM, the solubility at 24 h [2] was 140 µg/mL (≈ 382 µM) and the T1/2 [3] was “Stable”.

`O=S(=O)(NC1CCC(CO)CC1)c1ccc(-c2ccc(F)cc2F)cc1` (stereo not drawn) [ABD776, 2′,4′-Difluoro-N-(4-(trans-hydroxymethyl)cyclohexyl)biphenyl-4-sulfonamide] gave an IC50 [1] of 800 nM, a solubility at 24 h [2] of 82 µg/mL (≈ 215 µM) and a half-life at 3 µM [3] of 137 min.

In the case of `CC(C)(O)[C@H]1CC[C@@H](NS(=O)(=O)c2ccc(-c3ccc(F)cc3F)cc2)CC1` [ABD795, 2′,4′-Difluoro-N-(cis-4-(2-hydroxypropan-2-yl)cyclohexyl)biphenyl-4-sulfonamide], the IC50 [1] is reported as 2700 nM, the solubility at 24 h [2] is reported as 50 µg/mL (≈ 122 µM) and the half-life at 3 µM [3] is reported as 15 min.

`O=S(=O)(N[C@H]1CC[C@@H](O)CC1)c1ccc(-c2ccc(F)cc2F)cc1` [ABD777, 2′,4′-Difluoro-N-(cis-4-hydroxycyclohexyl)biphenyl-4-sulfonamide] gave an IC50 [1] of 1900 nM, a solubility at 24 h [2] of 60 µg/mL (≈ 163 µM) and a half-life at 3 µM [3] of 69 min.

For `CC(C)(O)[C@@H]1CC[C@H](NS(=O)(=O)c2ccc(-c3ccc(F)cc3F)cc2)C1` [ABD796, 2′,4′-Difluoro-N-((1S,3R)-3-(2-hydroxypropan-2-yl)cyclopentyl)biphenyl-4-sulfonamide], the IC50 [1] was < 300 nM, the solubility at 24 h [2] was 200 µg/mL (≈ 506 µM) and the half-life at 3 µM [3] was 54 min.

In the case of `CN(C)[C@H]1CC[C@H](NS(=O)(=O)c2ccc(-c3ccc(F)cc3F)cc2)CC1` [ABD799, N-(trans-4-(Dimethylamino)cyclohexyl)-2′,4′-difluorobiphenyl-4-sulfonamide], the IC50 [1] is reported as 400 nM, the solubility at 24 h [2] is reported as 7200 µg/mL (≈ 18300 µM) and the T1/2 [3] is reported as “Stable”.

`O=S(=O)(N[C@@H]1CCC[C@@H]1CO)c1ccc(-c2ccc(F)cc2F)cc1` (relative stereo) [ABD769, 2′,4′-Difluoro-N-(cis-2-(hydroxymethyl)cyclopentyl)biphenyl-4-sulfonamide] showed an IC50 [1] of 4590 nM, a solubility at 24 h [2] of 70 µg/mL (≈ 191 µM) and a half-life at 3 µM [3] of 42 min.

`N[C@H]1CC[C@@H](NS(=O)(=O)c2ccc(-c3ccc(F)cc3F)cc2)CC1` [ABD812, N-(cis-4-Aminocyclohexyl)-2′,4′-difluorobiphenyl-4-sulfonamide] gave an IC50 [1] of 7600 nM, a solubility at 24 h [2] of 980 µg/mL (≈ 2670 µM) and a half-life at 3 µM [3] of 585 min.

For `CN(C)[C@H]1CC[C@@H](NS(=O)(=O)c2ccc(-c3ccc(F)cc3F)cc2)CC1` [ABD798, N-(cis-4-(Dimethylamino)cyclohexyl)-2′,4′-difluorobiphenyl-4-sulfonamide], the IC50 [1] was 600 nM, the solubility at 24 h [2] was 4700 µg/mL (≈ 11900 µM) and the T1/2 [3] was “Stable”.

With `CC(C)(O)[C@H]1CC[C@H](NS(=O)(=O)c2ccc(-c3ccc(F)cc3F)cc2)C1` [ABD815, 2′,4′-Difluoro-N-((1S,3S)-3-(2-hydroxypropan-2yl)cyclopentyl) biphenyl-4-sulfonamide] the IC50 [1] was < 300 nM, the solubility at 24 h [2] was 250 µg/mL (≈ 632 µM) and the half-life at 3 µM [3] was 13.2 min.

Work on `O=S(=O)(N[C@H]1CC[C@H](O)CC1)c1ccc(-c2ccc(Cl)cc2F)cc1` [ABD655, 4′-Chloro,2′-fluoro-N-(trans-4-hydroxycyclohexyl)biphenyl-4-sulfonamide] yielded an IC50 [1] of 180 nM, a solubility at 24 h [2] of 30 µg/mL (≈ 78.2 µM) and a half-life at 3 µM [3] of 228 min.

For `O=S(=O)(N[C@H]1CC[C@H](CO)C1)c1ccc(-c2ccc(F)cc2F)cc1` [ABD813, 2′,4′-Difluoro-N-((1S,3S)-3-(hydroxymethyl)cyclopentyl)biphenyl-4-sulfonamide], the IC50 [1] was 570 nM, the solubility at 24 h [2] was 330 µg/mL (≈ 898 µM) and the half-life at 3 µM [3] was 45.4 min.

In the case of `O=S(=O)(N[C@H]1CC[C@H](O)CC1)c1ccc(-c2ccc(F)cc2F)cc1` [ABD599, 2′,4′-Difluoro-N-(trans-4-hydroxycyclohexyl)biphenyl-4-sulfonamide], the IC50 [1] is reported as 70 nM, the solubility at 24 h [2] is reported as 30 µg/mL (≈ 81.7 µM) and the “caspase 3 activation (fluorescence detected by light microscopy)” value [4] is reported as “significant activation of caspase 3”. The half-life at 3 µM [3] was 287 min.

With `O=C1CCC(NS(=O)(=O)c2ccc(-c3ccc(F)cc3F)cc2)CC1` [ABD786, 2′,4′-Difluoro-N-(4-oxocyclohexyl)biphenyl-4-sulfonamide] the IC50 [1] was 280 nM, the solubility at 24 h [2] was 32 µg/mL (≈ 87.6 µM) and the half-life at 3 µM [3] was 12 min.

With `CC(C)(O)[C@H]1CC[C@H](NS(=O)(=O)c2ccc(-c3ccc(F)cc3F)cc2)CC1` [ABD794, 2′,4′-Difluoro-N-(trans-4-(2-hydroxypropan-2-yl)cyclohexyl)biphenyl-4-sulfonamide] the IC50 [1] was 2100 nM, the solubility at 24 h [2] was 12 µg/mL (≈ 29.3 µM) and the T1/2 [3] was “Stable”.
